Read-outs that look alike come from different tables or passages of the source.
Experiments:
HCV JFH1-2a replicon = experiment: HCV JFH1-2a subgenomic replicon assay (Renilla luciferase, Huh 7.5.1 replicon cells); format: cell-based; conditions: Hepatitis C virus, Table 4, read-out: Anti-HCV Activity EC50 ± SD Replicon Assay JFH1-2a
HCV H77-1a replicon = experiment: HCV H77-1a subgenomic replicon assay; format: cell-based; conditions: Hepatitis C virus; Table 4; read-out: Anti-HCV Activity EC50 ± SD Replicon Assay H77-1a
HCV Con1-1b replicon = experiment: HCV Con1-1b subgenomic replicon assay; format: cell-based; conditions: Hepatitis C virus; Table 4; read-out: Anti-HCV Activity EC50 ± SD Replicon Assay Con1-1b
JFH1-2a (S282T) virus = experiment: HCV virus assay, mutant JFH1-2a (S282T) virus strain; format: cell-based; conditions: Hepatitis C virus, read-out: Anti-HCV Activity (Virus Assay) EC50 ± SD JFH1-2a (S282T)
CypA = CypA (Homo sapiens, UniProt P62937); experiment: CypA enzyme inhibition assay (chymotrypsin-coupled PPIase assay); format: biochemical; conditions: mean ± SD of five independent experiments
CypA, sequence (P62937 whole entry): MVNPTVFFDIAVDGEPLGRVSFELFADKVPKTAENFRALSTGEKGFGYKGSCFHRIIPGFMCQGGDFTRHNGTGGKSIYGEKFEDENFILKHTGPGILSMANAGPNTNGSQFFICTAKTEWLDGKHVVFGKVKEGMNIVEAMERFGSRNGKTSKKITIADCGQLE
Procedure: The PPIase activity of CypA was conducted in a coupled assay with chymotrypsin using the synthetic tetrapeptide N-succinyl-Ala-Ala-Pro-Phe-p-nitroanilide (Sigma, Shanghai, China) as described in [34] with small modifications. The assay buffer (20 mM Tris-HCl, 50 mM NaCl, pH 7.8) and CypA were precooled at 4 °C and mixed with 0.4 mg∙mL^−1 chymotrypsin (20 mg∙mL^−1 in 1 mM HCl). The reaction was initiated by adding peptide substrate (2 mg∙mL^−1 in 500 mM LiCl in tetrahydrofuran (THF)). […] Absorbance readings were collected every 0.1 s and the temperature was controlled at 4 °C during the assay. The progress curves were analyzed by nonlinear least-squares fit. The inhibition assays of compounds were performed in the same manner as above-mentioned. […] of test compounds in DMSO, at various concentrations, was added to the CypA solution in the assay buffer. After being preincubated for 1 h at 4 °C, the assay was started by the addition of chymotrypsin and the substrate. To calculate the half-maximal inhibitory concentration (IC50), a percent of the remaining PPIase activity was plotted against the common logarithm of the compound concentration, and the data were fitted using the sigmoidal fitting model of Origin 7.0 software.

hERG channels = molecular target: T1, hERG channels (Homo sapiens, UniProt Q12809); experiment: hERG cardiac toxicity assay (automated QPatch, CHO cells expressing hERG); format: cell-based; conditions: QPatch whole-cell recording
T1 construct: expressed in transfected cells; host or cells: CHO cells, stably transfected
T1 sequence (Q12809 whole entry): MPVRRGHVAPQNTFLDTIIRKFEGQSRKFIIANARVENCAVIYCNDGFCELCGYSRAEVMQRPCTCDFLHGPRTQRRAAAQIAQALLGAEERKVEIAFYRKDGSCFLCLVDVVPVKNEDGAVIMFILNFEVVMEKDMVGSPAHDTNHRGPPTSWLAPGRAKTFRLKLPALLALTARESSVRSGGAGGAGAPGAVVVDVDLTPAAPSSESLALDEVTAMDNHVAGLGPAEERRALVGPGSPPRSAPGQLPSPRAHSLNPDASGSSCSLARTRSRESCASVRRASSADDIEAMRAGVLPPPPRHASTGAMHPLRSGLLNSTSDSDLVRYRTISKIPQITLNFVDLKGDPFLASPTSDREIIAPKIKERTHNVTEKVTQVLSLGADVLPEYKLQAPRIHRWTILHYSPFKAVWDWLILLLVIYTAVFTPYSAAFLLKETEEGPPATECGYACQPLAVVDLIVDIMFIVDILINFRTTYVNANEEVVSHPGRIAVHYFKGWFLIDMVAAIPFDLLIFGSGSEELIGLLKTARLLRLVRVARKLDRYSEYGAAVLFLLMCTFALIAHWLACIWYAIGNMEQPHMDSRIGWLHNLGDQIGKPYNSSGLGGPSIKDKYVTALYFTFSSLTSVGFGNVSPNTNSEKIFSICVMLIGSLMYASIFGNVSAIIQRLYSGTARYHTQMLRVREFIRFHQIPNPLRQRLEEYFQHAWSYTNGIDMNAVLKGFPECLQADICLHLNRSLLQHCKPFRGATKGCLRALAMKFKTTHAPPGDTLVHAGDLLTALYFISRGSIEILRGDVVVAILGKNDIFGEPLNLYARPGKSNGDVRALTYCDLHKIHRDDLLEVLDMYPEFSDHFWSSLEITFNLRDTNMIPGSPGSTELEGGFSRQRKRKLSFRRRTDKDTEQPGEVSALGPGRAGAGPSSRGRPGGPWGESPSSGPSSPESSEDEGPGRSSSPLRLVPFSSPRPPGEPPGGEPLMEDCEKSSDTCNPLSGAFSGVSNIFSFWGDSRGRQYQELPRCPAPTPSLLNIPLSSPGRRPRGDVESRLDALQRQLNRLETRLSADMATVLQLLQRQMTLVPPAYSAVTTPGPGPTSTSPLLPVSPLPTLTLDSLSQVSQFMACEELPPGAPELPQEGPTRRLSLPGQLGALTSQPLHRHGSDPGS
Procedure: After intravenous administration, blood samples (0.2 mL) were collected at designated time points (0, 5, 15, 30, 45 min, 1, 2, 3, 5, 8, 12 and 24 h) from the eye venous sinus of the rats. The blood samples were centrifuged at 14800 rpm for 10 min to obtain the plasma fraction. The plasma samples were kept frozen (−20 °C) until analysis by a liquid chromatography-tandem mass spectrometry (LC-MS/MS).
Table S3. Pharmacokinetic parameters after intravenous administration of 25 to SD rats at […]
Pharmacokinetic Parameters 25 (Intravenous Injection of 2 mg 25/kg) Rat 1 Rat 2 a Rat 3 Mean ± SD […]
1 (intravenous injection of 2mg 25/kg) Rat 1 Rat 2 a Rat 3 Mean ± SD […]
a Rat 2: parts of the sample of 25 was injected into the subcutaneous tissues which lead to the uncertainty of the plasma concentration, so this rat was not incorporated into the calculation of pharmacokinetic parameters; b Cmax: maximum plasma concentration taken directly from measured values; c Tmax: time to reach Cmax; d AUC0-∞: integrated area under plasma concentration vs. time curve from time 0 to time infinity; e MRT: mean residence time; f t1/2: half-life. g N: parts of the data below the LLOQ, that result in the uncertainty of the pharmacokinetic parameters. hERG Cardiac Toxicity Assay of Compound 25 […]
After achieving break-in (whole-cell) configuration, the cells were recorded for 120 s to assess current stability. […]

in vivo = conditions: male, SD, rat, iv, i.v. 2 mg 25/kg; for AUC(0-inf): AUC0-∞
[1] = tested on: JFH1-2a virus (wild type); experiment: HCV virus assay, JFH1-2a wild type, Huh 7.5.1 cells; conditions: Hepatitis C virus
[2] = SD rats, Mean ± SD (Rat 1 and 3)

CCCCCCCC(=O)Oc1cccc(O)c1C(=O)NC(=O)NC1c2ccccc2-c2ccccc21 [Compound 25, 1-(2-Hydroxy-6-n-Octanoyloxybenzoyl)-3-(9H-fluoren-9-yl)-urea]
EC50 (HCV JFH1-2a replicon): 450 ± 80 nM | EC50 (HCV H77-1a replicon): 850 ± 210 nM | EC50 (HCV Con1-1b replicon): 810 ± 240 nM | EC50 (JFH1-2a (S282T) virus): 290 ± 70 nM | IC50 (CypA): > 5000 nM | IC50 (hERG channels): > 15000 nM | AUC(0-inf) (in vivo; SD rat, Rat 1): 5.66 ng·h/mL | AUC(0-inf) (in vivo; SD rat, Rat 3): 5.3 ng·h/mL | AUC(0-inf) (in vivo; [2]): 5.48 ± 0.25 ng·h/mL | Cmax (in vivo; SD rat, Rat 1): 13.4 ng/mL | Cmax (in vivo; SD rat, Rat 3): 27.5 ng/mL | Cmax (in vivo; [2]): 20.5 ± 9.99 ng/mL | MRT (in vivo; SD rat, Rat 1): 2.42 h | MRT (in vivo; SD rat, Rat 3): 0.21 h | MRT (in vivo; [2]): 1.3 ± 1.6 h | half-life (in vivo; t1/2, SD rat, Rat 1): 5.4 h | half-life (in vivo; t1/2, SD rat, Rat 3): 0.12 h | half-life (in vivo; t1/2, SD rats, Mean ± SD (Rat 1 and 3)): 2.76 ± 3.73 h | EC50 ([1]; Huh-7.5.1, read-out: Anti-HCV Activity (Virus Assay) EC50 ± SD JFH1-2a (Wild Type)): 270 ± 90 nM | EC50 ([1]; Huh-7.5.1, read-out: Anti-HCV Activity EC50 ± SD Virus Assay JFH1-2a): 190 ± 80 nM

Reference: article PMC6272715, “Discovery of Novel Small Molecule Anti-HCV Agents via the CypA Inhibitory Mechanism Using O-Acylation-Directed Lead Optimization” (Molecules, 2015)
